Like-named read-outs stand apart in the source and are kept apart here.
How the values were obtained:
human C3bBb = human C3bBb (Homo sapiens (Human), UniProt P00751); experiment: Human C3bBb enzyme assay (C3a generation from C3, ELISA); format: biochemical; conditions: read-out: Human C3b:Bb IC50 Avg
Experimental: Compounds disclosed herein were evaluated for their potency to inhibit human C3bBb in a biochemical assay. To generate active C3bBb complex in vitro, purified human C3b (Complement Technology, A114), CFB (Complement Technology, A135) and CFD (Complement Technology, A136) were mixed in a 1:1:1 ratio to a final concentration of 1 μM each in the C3bBb assay buffer (PBS pH 7.4, 100 μM NiCl2, 0.05% (w/v) CHAPS). The reaction mix was incubated at room temperature for 30 minutes on a rotating platform. […] On the day of the enzyme assay, a reaction mixture containing 3 nM C3bBb complex and 1 μM purified human C3 (Complement Technology, A113) was prepared in the C3bBb assay buffer. Compounds were serial diluted 3-fold in 100% DMSO for a 10-point dose-response curve. A 0.5 μL aliquot of diluted compound solution was transferred to a conical bottom 96-well plate, before 49.5 μL of the reaction mix was added to each well to initiate the reaction. The plate was incubated for 1 hour at room temperature. […] The generation of C3a from C3 by the C3bBb complex was measured using the MicroVue C3a Plus EIA ELISA kit (Quidel, A031). The concentration of C3a from each well was calculated using a standard curve. Percent inhibition values were generated using the baseline (C3 only) and the maximum control (DMSO instead of compound), and IC50 of each compound was calculated using 4-parameter logistic regression.

[1] = test system: MAC formation in normal human serum; experiment: Human serum MAC formation assay (zymosan-coated plates, 50% normal human serum); conditions: 50% normal human serum with EGTA, 37° C. 30 minutes
Experimental: MAC deposition assay using normal human serum was applied to evaluate compound potency under physiologically relevant conditions. Black Maxisorp plates (Thermo Fisher, 437111) were coated with preactivated zymosan (Complement Technology, B400) at 0.5 mg/mL in carbonate buffer (pH 9.5, Sigma, C3041) at room temperature overnight. Compounds were serial diluted 3-fold in 100% DMSO for a 10-point dose-response curve. Normal human serum (Complement Technology, NHS) was diluted to 50% (v/v) with the gelatin buffer (4.2 mM HEPES pH 7.4, 0.15 mM CaCl2, 141 mM NaCl, 4.5 mM MgCl2, 0.1% gelatin) containing 20 mM EGTA or 20 mM EDTA. In conical bottom 96-well plates, 1 μL compound and 99 μL of serum-EGTA were mixed. Serum-EDTA was used as baseline control. The serum-compound mixture was incubated at room temperature for 15 minutes before being transferred to the washed zymosan plate for complement activation at 37° C. for 30 minutes. The reaction was terminated by decanting the reaction mixture and adding blocking buffer (Thermo Fisher, 37539) for 20 minutes. MAC formation on the ELISA plate was detected using 0.2 μg/mL mouse anti-human C9 neoepitope monoclonal antibody (Thermo Fisher, MA5-33373) diluted in phosphate-buffered saline with 0.05% Tween-20 (PBST). A goat anti-mouse IgG-HRP antibody (Thermo Fisher, A16072) was used at 1:2000 in PBST as secondary antibody. After washing, the reaction was developed using QuantaBlu (Thermo Fisher, 15169) for 20 minutes at room temperature. The plates were read at 325 nm excitation and 420 nm emission wavelengths. Percent inhibition values were generated using the baseline (EDTA-serum) and the maximum control (EGTA-serum). An IC50 for each compound was calculated using 4-parameter logistic regression.

[2] = starred values: assay conducted with 1 nM C3b:Bb enzyme
[3] = 3 nM C3bBb complex, 1 μM human C3, 1 hour room temperature

Chain of human C3bBb (P00751 260-764): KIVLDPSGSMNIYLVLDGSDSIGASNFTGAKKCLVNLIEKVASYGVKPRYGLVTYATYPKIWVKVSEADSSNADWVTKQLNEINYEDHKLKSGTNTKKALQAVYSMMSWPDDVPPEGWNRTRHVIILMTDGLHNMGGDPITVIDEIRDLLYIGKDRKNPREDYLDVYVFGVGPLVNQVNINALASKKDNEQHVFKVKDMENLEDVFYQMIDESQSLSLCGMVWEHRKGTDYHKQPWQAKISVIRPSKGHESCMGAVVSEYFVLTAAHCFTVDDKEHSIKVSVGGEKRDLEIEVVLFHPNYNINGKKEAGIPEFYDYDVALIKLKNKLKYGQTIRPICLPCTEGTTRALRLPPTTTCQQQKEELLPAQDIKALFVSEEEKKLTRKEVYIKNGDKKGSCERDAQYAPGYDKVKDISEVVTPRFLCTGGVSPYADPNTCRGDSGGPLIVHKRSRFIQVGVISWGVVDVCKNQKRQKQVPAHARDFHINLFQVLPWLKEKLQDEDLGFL
Chain of human C3bBb (P01024 23-667 partner): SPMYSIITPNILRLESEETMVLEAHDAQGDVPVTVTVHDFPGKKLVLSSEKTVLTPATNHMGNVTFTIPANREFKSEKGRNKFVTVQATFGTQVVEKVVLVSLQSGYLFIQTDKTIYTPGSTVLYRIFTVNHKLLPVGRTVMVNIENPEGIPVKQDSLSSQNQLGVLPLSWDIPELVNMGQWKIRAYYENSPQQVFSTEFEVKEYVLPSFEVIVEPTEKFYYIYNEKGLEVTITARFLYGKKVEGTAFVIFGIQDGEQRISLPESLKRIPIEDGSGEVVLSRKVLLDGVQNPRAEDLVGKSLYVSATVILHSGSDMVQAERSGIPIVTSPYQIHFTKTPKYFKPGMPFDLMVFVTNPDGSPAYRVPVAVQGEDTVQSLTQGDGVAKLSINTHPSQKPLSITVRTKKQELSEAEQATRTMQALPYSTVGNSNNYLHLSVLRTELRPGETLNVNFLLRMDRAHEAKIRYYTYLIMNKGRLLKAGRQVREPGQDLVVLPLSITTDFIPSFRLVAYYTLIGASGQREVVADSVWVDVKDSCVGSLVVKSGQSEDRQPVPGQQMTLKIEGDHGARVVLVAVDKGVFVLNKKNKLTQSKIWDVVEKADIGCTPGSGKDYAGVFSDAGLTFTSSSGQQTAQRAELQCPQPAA
Chain of human C3bBb (P01024 749-1663 partner): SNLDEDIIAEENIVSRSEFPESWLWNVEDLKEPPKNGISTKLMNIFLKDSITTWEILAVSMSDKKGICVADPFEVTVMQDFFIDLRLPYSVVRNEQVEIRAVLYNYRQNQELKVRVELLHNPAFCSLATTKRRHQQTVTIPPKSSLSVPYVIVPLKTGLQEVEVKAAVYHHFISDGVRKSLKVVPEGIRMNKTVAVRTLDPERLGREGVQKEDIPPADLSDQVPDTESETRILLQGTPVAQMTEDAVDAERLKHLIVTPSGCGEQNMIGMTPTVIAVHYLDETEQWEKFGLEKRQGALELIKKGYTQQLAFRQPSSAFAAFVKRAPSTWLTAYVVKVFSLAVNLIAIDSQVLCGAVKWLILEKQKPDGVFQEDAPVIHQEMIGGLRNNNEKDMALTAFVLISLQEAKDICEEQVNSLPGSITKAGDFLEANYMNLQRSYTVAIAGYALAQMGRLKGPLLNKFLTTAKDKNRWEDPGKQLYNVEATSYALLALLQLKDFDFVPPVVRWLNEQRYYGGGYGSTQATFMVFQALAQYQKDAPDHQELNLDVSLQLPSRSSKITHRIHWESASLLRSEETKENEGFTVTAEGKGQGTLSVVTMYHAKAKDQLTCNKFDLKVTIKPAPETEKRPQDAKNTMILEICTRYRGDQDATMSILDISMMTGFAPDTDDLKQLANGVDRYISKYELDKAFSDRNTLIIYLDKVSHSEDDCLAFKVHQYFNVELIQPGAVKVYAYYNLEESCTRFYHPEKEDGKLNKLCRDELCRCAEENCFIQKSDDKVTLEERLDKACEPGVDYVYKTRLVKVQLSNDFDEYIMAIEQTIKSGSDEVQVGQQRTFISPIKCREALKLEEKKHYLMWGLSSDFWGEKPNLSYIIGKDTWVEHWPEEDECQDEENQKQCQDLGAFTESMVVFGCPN

Structure (SMILES) | IC50 (human C3bBb; [2]) | IC50 (human C3bBb; [3]) | IC50 [1]
COc1cc(C)c2[nH]ccc2c1CN1CC[C@H](n2cc(S(C)(=O)=O)cn2)C[C@H]1c1ccc(C(=O)O)cc1 (racemic) [Example 11, (±)-trans-4-(1-((5-methoxy-7-methyl-1H-indol-4-yl)methyl)-4-(4-methylsulfonyl)-1H-pyrazol-1-yl)piperidin-2-yl)benzoic acid] |  | > 100 nM | > 500 nM
COc1cc(C)c2[nH]ccc2c1CN1CC[C@H](n2cncn2)C[C@H]1c1ccc(C(=O)O)cc1 (racemic) [Example 3, (±)-trans-4-(1-((5-methoxy-7-methyl-1H-indol-4-yl)methyl)-4-(1H-1,2,4-triazol-1-yl)piperidin-2-yl)benzoic acid] |  | 10 to 25 nM | > 500 nM
COc1cc(C)c2[nH]ccc2c1CN1CC[C@H](NCC2CC2)C[C@H]1c1ccc(C(=O)O)cc1 [Example 26, 4-((2S,4S)-4-((cyclopropylmethyl)amino)-1-((5-methoxy-7-methyl-1H-indol-4-yl)methyl)piperidin-2-yl)benzoic acid] | 50 to 100 nM |  | 100 to 200 nM
COc1cc(C)c2[nH]ccc2c1CN1CC[C@]2(C[C@H]1c1ccc(C(=O)O)cc1)C[C@@H](C(F)(F)F)C2 (single isomer, unassigned) [Example 48, 4-((2R,4s,6S)-7-((5-methoxy-7-methyl-1H-indol-4-yl)methyl)-2-(trifluoromethyl)-7-azaspiro[3.5]nonan-6-yl)benzoic acid or 4-((2S,4r,6S)-7-((5-methoxy-7-methyl-1H-indol-4-yl)methyl)-2-(trifluoromethyl)-7-azaspiro[3.5]nonan-6-yl)benzoic acid] | < 10 nM |  | < 100 nM
COc1cc(C)c2[nH]ccc2c1CN1CC[C@H](NC2CC(F)(F)C2)C[C@H]1c1ccc(C(=O)O)cc1 [Example 19, 4-((2S,4S)-4-((3,3-difluorocyclobutyl)amino)-1-((5-methoxy-7-methyl-1H-indol-4-yl)methyl)piperidin-2-yl)benzoic acid] | < 10 nM |  | < 100 nM
COc1cc(C)c2[nH]ccc2c1CN1CC[C@H](NC2CC(F)(F)C2)C[C@H]1c1ccc(C(=O)O)cc1 [Example 24, 4-((2S,4S)-4-((3,3-difluorocyclobutyl)amino)-1-((5-methoxy-7-methyl-1H-indol-4-yl)methyl)piperidin-2-yl)benzoic acid] | 10 to 25 nM |  | 200 to 300 nM
COc1cc(C)c2[nH]ccc2c1CN1CCN(CC2CC(F)(F)C2)C[C@H]1c1ccc(C(=O)O)cc1 [Example 67, (R)-4-(4-((3,3-difluorocyclobutyl)methyl)-1-((5-methoxy-7-methyl-1H-indol-4-yl)methyl)piperazin-2-yl)benzoic acid] | 50 to 100 nM |  | 300 to 500 nM
Cc1cc(C2CC2)c(CN2CC[C@H](N3CC(C(F)(F)F)C3)C[C@H]2c2ccc(C(=O)O)cc2)c2cc[nH]c12 [Example 76, 4-((2S,4S)-1-((5-cyclopropyl-7-methyl-1H-indol-4-yl)methyl)-4-(3-(trifluoromethyl)azetidin-1-yl)piperidin-2-yl)benzoic acid] | < 10 nM |  | 100 to 200 nM
COc1cc(C)c2[nH]cc(Cl)c2c1CN1CC[C@H](N2CC(C(F)(F)F)C2)C[C@H]1c1ccc(C(=O)O)cc1 [Example 75, 4-((2S,4S)-1-((3-chloro-5-methoxy-7-methyl-1H-indol-4-yl)methyl)-4-(3-(trifluoromethyl)azetidin-1-yl)piperidin-2-yl)benzoic acid] | 10 to 25 nM |  | 200 to 300 nM
COc1cc(C)c2[nH]ccc2c1CN1CCN(CC2(F)COC2)C[C@H]1c1ccc(C(=O)O)cc1 [Example 69, (R)-4-(4-((3-fluorooxetan-3-yl)methyl)-1-((5-methoxy-7-methyl-1H-indol-4-yl)methyl)piperazin-2-yl)benzoic acid] | 50 to 100 nM |  | 100 to 200 nM
COc1cc(C)c2[nH]cc(F)c2c1CN1CCC2(C[C@H]1c1ccc(C(=O)O)cc1)CC(F)(F)C2 [Example 54, (S)-4-(2,2-difluoro-7-((3-fluoro-5-methoxy-7-methyl-1H-indol-4-yl)methyl)-7-azaspiro[3.5]nonan-6-yl)benzoic acid] | < 10 nM |  | < 100 nM

Further lines, with some results ahead:

IC50 (human C3bBb; [2]) | IC50 (human C3bBb; [3]) | Structure (SMILES) | IC50 [1]
< 10 nM |  | COc1cc(C)c2[nH]ccc2c1CN1CC[C@@]2(CCOC2)C[C@H]1c1ccc(C(=O)O)cc1 (single isomer, unassigned) [Example 34, 4-((5S,7S)-8-((5-methoxy-7-methyl-1H-indol-4-yl)methyl)-2-oxa-8-azaspiro[4.5]decan-7-yl)benzoic acid or 4-((5R,7S)-8-((5-methoxy-7-methyl-1H-indol-4-yl)methyl)-2-oxa-8-azaspiro[4.5]decan-7-yl)benzoic acid] | 100 to 200 nM
< 10 nM |  | COc1cc(C)c2[nH]ccc2c1CN1CC[C@H](OCC(F)(F)F)C[C@H]1c1ccc(C(=O)O)cc1 [Example 85, 4-((2S,4S)-1-((5-methoxy-7-methyl-1H-indol-4-yl)methyl)-4-(2,2,2-trifluoroethoxy)piperidin-2-yl)benzoic acid] | 100 to 200 nM
< 10 nM |  | COc1cc(C)c2[nH]ccc2c1CN1CC[C@H](N2CC(C(F)(F)F)C2)C[C@H]1c1ccc(C(=O)O)cc1 (racemic) [Example 71, (±)-trans-4-1-((5-methoxy-7-methyl-1H-indol-4-yl)methyl)-4-(3-(trifluoromethyl)azetidin-1-yl)piperidin-2-yl)benzoic acid] | 300 to 500 nM
< 10 nM |  | COc1cc(C)c2[nH]ccc2c1CN1CC[C@H](OC(F)F)C[C@H]1c1ccc(C(=O)O)cc1 [Example 28, 4-((2S,4S)-4-(difluoromethoxy)-1-((5-methoxy-7-methyl-1H-indol-4-yl)methyl)piperidin-2-yl)benzoic acid] | 100 to 200 nM
< 10 nM |  | COc1cc(C)c2[nH]ccc2c1CN1CC[C@]2(CCC(F)(F)C2)C[C@H]1c1ccc(C(=O)O)cc1 (single isomer, unassigned) [Example 36, 4-(5R,7S)-(2,2-difluoro-8-((5-methoxy-7-methyl-1H-indol-4-yl)methyl)-8-azaspiro[4.5]decan-7-yl)benzoic acid or 4-(5S,7S)-(2,2-difluoro-8-((5-methoxy-7-methyl-1H-indol-4-yl)methyl)-8-azaspiro[4.5]decan-7-yl)benzoic acid] | < 100 nM
< 10 nM |  | Cc1cc(C2CC2)c(CN2CC[C@H](N3CC(C#N)C3)C[C@H]2c2ccc(C(=O)O)cc2)c2cc[nH]c12 [Example 77, 4-((2S,4S)-4-(3-cyanoazetidin-1-yl)-1-((5-cyclopropyl-7-methyl-1H-indol-4-yl)methyl)piperidin-2-yl)benzoic acid] | < 100 nM
< 10 nM |  | COc1cc(C)c2[nH]ccc2c1CN1CC[C@H](N2CC(C(F)(F)F)C2)C[C@H]1c1ccc(C(=O)O)cc1 [Example 81, 4-((2S,4S)-1-((5-methoxy-7-methyl-1H-indol-4-yl)methyl)-4-(3-(trifluoromethyl)azetidin-1-yl)piperidin-2-yl)benzoic acid] | < 100 nM
< 10 nM |  | COc1cc(C)c2[nH]ccc2c1CN1CCN(CCC(F)(F)F)C[C@H]1c1ccc(C(=O)O)cc1 [Example 68, (R)-4-(1-((5-methoxy-7-methyl-1H-indol-4-yl)methyl)-4-(3,3,3-trifluoropropyl)piperazin-2-yl)benzoic acid] | 100 to 200 nM

Reference: patent publication US20250289804A1, “SUBSTITUTED INDOLE COMPOUNDS AND METHODS OF USE THEREOF” (NOVARTIS PHARMA AG, priority 2021, published 2025)
